What was measured:
Recombinant human DPP4 = target: T1, Recombinant human DPP4 (Homo sapiens, UniProt P27487); assay: DPP4 protease activity assay; assay type: biochemical; details: 20 µM GP-AMC substrate; for IC50: read-out: pIC50 (DPP4) (converted)
T1 construct: purchased R&D systems 9168-SE
Method: (§1) The PREP activity assay was performed using the FACS buffer (PBS including 1% FBS, Sigma-Aldrich, Cat# D8537). […] The DPP4 activity assay was performed in DPP assay buffer (25 mM Tris, pH 8.0).
(§2) Four parameter logistic (4PL) curve fitting and pIC50 calculations were performed using ActivityBase software.

[1] = target: T2, FAP-expressing human WI-38 fibroblasts (Homo sapiens, UniProt Q12884); assay: Competitive FACS binding assay (displacement of Cy5-labeled FAP inhibitor 3BP-2935); details: 3 nM Cy5-labeled 3BP-2935, 4°C, 1 hour
T2 construct: FAP-expressing human WI-38 fibroblasts (ECACC 90020107) were cultured in EMEM; host or cells: WI-38 human fibroblasts
T2 sequence (Q12884 1-760): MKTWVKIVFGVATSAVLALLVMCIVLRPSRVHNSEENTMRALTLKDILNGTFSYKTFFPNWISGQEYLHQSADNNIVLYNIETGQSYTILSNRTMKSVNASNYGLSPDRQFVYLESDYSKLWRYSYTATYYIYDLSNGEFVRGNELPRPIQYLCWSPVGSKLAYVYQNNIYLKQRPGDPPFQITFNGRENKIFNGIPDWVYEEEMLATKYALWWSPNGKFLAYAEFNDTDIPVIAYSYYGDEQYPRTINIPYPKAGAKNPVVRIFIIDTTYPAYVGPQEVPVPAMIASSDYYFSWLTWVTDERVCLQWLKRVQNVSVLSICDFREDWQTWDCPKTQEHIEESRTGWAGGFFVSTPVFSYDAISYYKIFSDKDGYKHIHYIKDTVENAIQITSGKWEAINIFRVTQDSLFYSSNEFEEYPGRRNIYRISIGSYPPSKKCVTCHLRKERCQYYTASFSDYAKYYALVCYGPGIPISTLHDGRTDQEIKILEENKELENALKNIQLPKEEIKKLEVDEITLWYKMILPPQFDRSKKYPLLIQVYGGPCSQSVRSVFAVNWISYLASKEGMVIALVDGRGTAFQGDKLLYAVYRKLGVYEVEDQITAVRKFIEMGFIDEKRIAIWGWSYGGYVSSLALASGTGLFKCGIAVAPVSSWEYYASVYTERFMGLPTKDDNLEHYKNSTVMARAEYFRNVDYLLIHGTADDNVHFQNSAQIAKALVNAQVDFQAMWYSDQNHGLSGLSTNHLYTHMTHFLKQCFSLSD
Method: In order to determine binding of compounds according to the present invention to FAP-expressing cells, a competitive FACS binding assay was established.
Cells were diluted in FACS buffer to a final concentration of 100.000 cells per ml and 200 µl of the cell suspension are transferred to a u-shaped non-binding 96-well plate (Greiner).
Cell were washed twice with FACS buffer (see above) and resuspended in 200 µl FACS buffer. Cells were analyzed in an Attune NxT flow cytometer (Thermo Fisher Scientific). Median fluorescence intensities (Cy5 channel) was calculated by Attune NxT software and plotted against test compound concentrations. Four parameter logistic (4PL) curve fitting and pIC50 calculations were performed using ActivityBase software.

Human recombinant FAP [2] = target: T3, Human recombinant FAP (Homo sapiens, UniProt Q12884); assay: FRET-based FAP protease activity assay (human); assay type: biochemical; set-up: purchased R&D systems 3715-SE; details: FRET-peptide substrate, 37°C; for IC50: read-out: pIC50 (Activity) (converted)
T3 sequence (Q12884 1-760): T2 sequence (Q12884 1-760)
Method: (§3) In order to determine the inhibitory activity a FRET-based FAP protease activity assay was established.
25 µL of a 30 µM substrate solution, diluted in assay buffer, was added. […] Four parameter logistic (4PL) curve fitting and pIC50 calculations were performed using ActivityBase software (IDBS).

recombinant human PREP = target: T4, recombinant human PREP (Homo sapiens, UniProt P48147); assay: PREP protease activity assay; assay type: biochemical; details: 50 µM Z-GP-AMC substrate
T4 construct: purchased R&D systems 4308-SE
T4 sequence (P48147 1-710): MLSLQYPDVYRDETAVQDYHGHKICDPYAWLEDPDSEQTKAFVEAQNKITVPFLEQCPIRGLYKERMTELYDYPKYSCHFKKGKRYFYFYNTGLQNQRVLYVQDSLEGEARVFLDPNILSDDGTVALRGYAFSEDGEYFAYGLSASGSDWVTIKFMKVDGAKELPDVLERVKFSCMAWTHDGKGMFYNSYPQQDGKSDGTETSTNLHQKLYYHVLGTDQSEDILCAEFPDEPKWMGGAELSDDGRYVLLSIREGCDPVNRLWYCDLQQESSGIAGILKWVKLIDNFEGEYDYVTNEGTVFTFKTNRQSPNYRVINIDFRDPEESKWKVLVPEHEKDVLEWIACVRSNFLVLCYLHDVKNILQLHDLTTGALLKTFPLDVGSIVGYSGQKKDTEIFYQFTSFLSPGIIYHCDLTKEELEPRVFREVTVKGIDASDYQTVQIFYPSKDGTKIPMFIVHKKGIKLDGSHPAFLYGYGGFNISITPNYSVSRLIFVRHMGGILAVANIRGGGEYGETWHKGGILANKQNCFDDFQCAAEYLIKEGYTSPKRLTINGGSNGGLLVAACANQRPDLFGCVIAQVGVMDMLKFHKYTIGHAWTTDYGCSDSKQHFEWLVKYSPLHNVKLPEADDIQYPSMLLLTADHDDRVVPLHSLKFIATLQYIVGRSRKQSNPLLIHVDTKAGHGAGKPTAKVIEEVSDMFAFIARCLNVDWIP
Method: as §1, §2

Recombinant mouse FAP = target: T5, Recombinant mouse FAP (Mus musculus, UniProt P97321); assay: FRET-based FAP protease activity assay (mouse); assay type: biochemical; details: FRET-peptide substrate, 37°C; for IC50: read-out: pIC50 (mouseFAP) (converted)
T5 construct: purchased R&D systems 8647-SE
T5 sequence (P97321 1-761): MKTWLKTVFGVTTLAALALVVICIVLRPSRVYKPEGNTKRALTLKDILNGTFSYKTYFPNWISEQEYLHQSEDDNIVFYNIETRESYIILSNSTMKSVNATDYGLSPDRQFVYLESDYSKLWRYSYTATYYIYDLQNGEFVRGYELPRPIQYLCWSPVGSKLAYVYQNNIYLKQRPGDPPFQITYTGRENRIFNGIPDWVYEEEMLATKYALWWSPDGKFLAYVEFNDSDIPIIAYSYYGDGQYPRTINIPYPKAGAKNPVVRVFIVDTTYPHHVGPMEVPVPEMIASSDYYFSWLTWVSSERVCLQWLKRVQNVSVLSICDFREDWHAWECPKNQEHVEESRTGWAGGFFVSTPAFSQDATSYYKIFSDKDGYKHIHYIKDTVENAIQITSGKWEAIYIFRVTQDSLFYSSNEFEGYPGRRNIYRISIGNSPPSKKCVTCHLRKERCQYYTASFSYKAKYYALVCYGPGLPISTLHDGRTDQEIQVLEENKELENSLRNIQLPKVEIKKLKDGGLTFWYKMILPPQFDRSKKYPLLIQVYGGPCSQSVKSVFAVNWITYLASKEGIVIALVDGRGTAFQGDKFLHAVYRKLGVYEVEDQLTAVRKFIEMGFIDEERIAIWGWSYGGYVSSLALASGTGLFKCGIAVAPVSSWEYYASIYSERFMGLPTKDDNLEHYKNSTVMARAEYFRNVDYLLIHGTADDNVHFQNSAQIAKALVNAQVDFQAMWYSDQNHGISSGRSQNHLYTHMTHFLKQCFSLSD
Method: as §3
25 µL of a 30 µM substrate solution, diluted in assay buffer, was added. […] Four parameter logistic (4PL) curve fitting and pIC50 calculations were performed using ActivityBase software.

Human recombinant FAP [3] = target: T3, Human recombinant FAP; assay: Surface plasmon resonance assay (Biacore T200, single cycle kinetics); assay type: binding; details: SPR, 25°C; for pKD (Biacore): 1:1 Langmuir binding model; for HL [min] (Biacore): half-life
Method: Surface plasmon resonance studies were performed using a Biacore™ T200 SPR system (Cytiva, formerly GE Healthcare). Briefly, polarized light is directed towards a gold-labeled sensor surface, and minimum intensity reflected light is detected. The angle of reflected light changes as molecules bind and dissociate. […] Test compounds are contacted with the loaded surface, and a real-time interaction profile with the FAP ligand is recorded in a sensorgram. In real-time, the association and dissociation of a binding interaction is measured, enabling calculation of association and dissociation rate constants and the corresponding affinity constants. Importantly, a background response is generated due to the difference in the refractive indices of the running and sample buffers, as well as unspecific binding of the test compounds to the flow cell surface. This background is measured and subtracted by running the sample on a control flow cell coated with the same density of capture antibody in the absence of immobilized FAP. Furthermore, baseline drift correction of the binding data is performed, which is caused by slow dissociation of the captured FAP from the immobilized antibody. This drift is measured by injecting running buffer through a flow cell with the antibody and FAP immobilized to the sensor surface.
Biacore™ CM5 sensor chips were used. […] A 150 µL aliquot was transferred into plastic vials and placed into the sample rack of the Biacore™ T200 instrument. Amine Coupling Kit Reagent solutions were transferred into plastic vials and placed into the sample rack: 90 µL of 0.4 M 1-ethyl-3-(3-dimethylaminopropyl)carbodiimide (EDC), and 90 µL of 0.1 M N-hydroxysuccinimide (NHS). A 130 µL aliquot of 1 M ethanolamine-HCl, pH 8.5, was transferred into plastic vials and placed into the sample rack. The Biacore™ liquid system was set-up as follows: Separate bottles containing distilled water (1 L), Running Buffer (500 mL), as well as an empty bottle for waste were placed onto the buffer tray. A preinstalled program for immobilization was used, with an immobilization level of 7000 RU. Immobilization was performed at 25°C. The immobilization procedure of anti-FAP antibodies was performed, as described in the Table 5. Table 5: Immobilization protocol for anti-FAP antibodies used on the CM5 sensor chip.
Human recombinant FAP was diluted in Running Buffer to a final concentration of 20 µg/mL. A 100 µL aliquot of human FAP-Working-Solution was transferred into plastic vials and placed into a sample rack. A 0.5 mM Compound-Stock-Solution was prepared by dissolving each compound in DMSO. For each test compound, Compound-Stock-Solutions were diluted in Running Buffer (HBST) at 500 nM and further diluted with HBST-DMSO Buffer (0.1% DMSO). SPR binding analyses for binary complexes were performed in SCK mode at 25°C. Following three SCK measurements, a baseline drift was assessed by injecting running buffer through a flow cell, with the antibody and FAP immobilized to the sensor surface. Table 6: Protocol for assessing the binding kinetics.
For each test compound, SPR raw data in the form of resonance units (RU) were plotted as sensorgrams using the Biacore™ T200 control software. The signal from the blank sensorgram was subtracted from that of the test compound sensorgram (blank corrected). The blank corrected sensorgram was corrected for baseline drift by subtracting the sensorgram of a SCK run without the test compound (running buffer only). The association rate (kon), dissociation rate (koff), dissociation constant (KD), and t1/2 were calculated from Blank-normalized SPR data using the 1:1 Langmuir binding model from the Biacore™ T200 evaluation software. Raw data and fit results were imported as text files in IDBS. The pKD value (negative decadic logarithm of dissociation constant) was calculated in the IDBS excel template.

T1 sequence (P27487 whole entry): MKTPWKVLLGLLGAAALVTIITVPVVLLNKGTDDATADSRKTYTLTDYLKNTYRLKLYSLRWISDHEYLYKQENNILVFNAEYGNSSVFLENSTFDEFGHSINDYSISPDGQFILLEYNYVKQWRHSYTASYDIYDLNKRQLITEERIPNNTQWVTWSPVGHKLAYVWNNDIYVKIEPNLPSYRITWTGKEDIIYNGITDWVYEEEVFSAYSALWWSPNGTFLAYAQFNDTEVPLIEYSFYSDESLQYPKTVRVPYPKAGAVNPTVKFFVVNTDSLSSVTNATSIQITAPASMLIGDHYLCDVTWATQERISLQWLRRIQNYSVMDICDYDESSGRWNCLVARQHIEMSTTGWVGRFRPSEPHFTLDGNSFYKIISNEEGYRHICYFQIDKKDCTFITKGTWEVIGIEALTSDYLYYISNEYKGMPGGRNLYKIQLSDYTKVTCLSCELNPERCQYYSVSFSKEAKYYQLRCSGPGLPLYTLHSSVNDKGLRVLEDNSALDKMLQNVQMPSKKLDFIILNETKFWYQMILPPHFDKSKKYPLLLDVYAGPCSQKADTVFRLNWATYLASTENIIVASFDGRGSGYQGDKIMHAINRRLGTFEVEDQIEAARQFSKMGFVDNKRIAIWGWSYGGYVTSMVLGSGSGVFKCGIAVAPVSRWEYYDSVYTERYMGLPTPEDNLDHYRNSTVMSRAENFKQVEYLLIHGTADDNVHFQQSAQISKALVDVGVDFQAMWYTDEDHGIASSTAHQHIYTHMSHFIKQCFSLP

Compound | IC50 (Recombinant human DPP4) | IC50 [1] | IC50 (Human recombinant FAP [2]) | IC50 (recombinant human PREP) | pIC50 (DPP4) (Recombinant human DPP4) | pIC50 (mouseFAP) (Recombinant mouse FAP) | pKD (Biacore) (Human recombinant FAP [3]) | HL [min] (Biacore) (Human recombinant FAP [3]) | IC50 (Recombinant mouse FAP) | pIC50 (FACS) [1] | pIC50 (Activity) (Human recombinant FAP [2])
N#C[C@@H]1CCCN1C(=O)CNC(=O)c1ccnc2ccc(-c3cccc(C(=O)O)c3)cc12 | > 1000 nM | 3.16 nM | 1.58 nM | > 1000 nM |  |  |  |  |  |  | 
N#C[C@@H]1CCCN1C(=O)CNC(=O)c1ccnc2cc(-c3cccc(C(=O)O)c3)ccc12 | > 1000 nM | 2.51 nM | 1.58 nM | > 1000 nM |  |  |  |  |  |  | 
N#C[C@@H]1CC(F)(F)CN1C(=O)CNC(=O)c1cc[n+]([O-])c2ccc(-c3ccc(S(=O)(=O)CCCNC(=O)CN4CCN(CC(=O)O)CCN(CC(=O)O)CCN(CC(=O)O)CC4)cc3)cc12 |  |  |  |  | 7 | 9.1 | >11 | 110 min |  |  | 
CS(=O)(=O)c1ccc(-c2ccc3nccc(C(=O)NCC(=O)N4C[C@H](F)C[C@H]4C#N)c3c2)cc1 | > 1000 nM | 50.1 nM | 3.16 nM |  |  |  |  |  | 10 nM |  | 
CS(=O)(=O)c1ccc(-c2ccc3nccc(C(=O)NCC(=O)N4C[C@@H](F)C[C@H]4C#N)c3c2)cc1 | > 1000 nM | 1.58 nM | 0.631 nM |  |  |  |  |  | 0.631 nM |  | 
CS(=O)(=O)c1cc(F)c(-c2ccc3nccc(C(=O)NCC(=O)N4CCC[C@H]4C#N)c3c2)c(F)c1 | > 1000 nM | 3.16 nM | 0.501 nM |  |  |  |  |  | 1 nM |  | 
Cc1cc(S(C)(=O)=O)ccc1-c1ccc2nccc(C(=O)NCC(=O)N3CC(F)(F)C[C@H]3C#N)c2c1 | 794 nM | 2 nM | 0.501 nM |  |  |  |  |  | 1.58 nM |  | 
Cc1cc(S(C)(=O)=O)ccc1-c1ccc2nccc(C(=O)NCC(=O)N3CCC[C@H]3C#N)c2c1 | > 1000 nM | 12.6 nM | 0.631 nM |  |  |  |  |  | 1.26 nM |  | 
N#C[C@@H]1CCCN1C(=O)CNC(=O)c1ccnc2ccc(-c3ccc(C(=O)NCCCN(CC(=O)O)C(=O)CN4CCN(CC(=O)O)CCN(CC(=O)O)CCN(CC(=O)O)CC4)cc3)cc12 |  |  |  |  | <6 | 8.9 | >11 | >500 min |  |  | 
CN(CCCN1CCN(C(=O)CN2CCN(CC(=O)O)CCN(CC(=O)O)CCN(CC(=O)O)CC2)CC1)c1ccc2nccc(C(=O)NCC(=O)N3CC(F)(F)C[C@H]3C#N)c2c1 |  |  |  |  |  | 8.6 | >11 | >500 min |  | 9 | 8.9
N#C[C@@H]1CC(F)(F)CN1C(=O)CNC(=O)c1ccnc2ccc(OCCCN3CCN(C(=O)CN4CCN(CC(=O)O)CCN(CC(=O)O)CCN(CC(=O)O)CC4)CC3)cc12 [drawing 287] |  |  |  |  | <6 | 8.8 |  | >500 min |  |  | 
